Laboratory results as given in patent US6921767B2, “Cycloalkyl alkanoic acids as integrin receptor antagonists derivatives” (Pharmacia Corporation, priority 2000, dated 2005).

Experiment: IC50 test to confirm desired/undesired isomer (assay not specified)
Conditions: qualitative outcome only, no number given

Row | tested for IC50 to confirm as desired / undesired compound (hydrochloride) | tested for IC50 to confirm as desired / undesired compound | Structure (SMILES)
1 | undesired isomer | – | Cl.O=C(O)CC1C(c2ccc(OCCc3ccc4c(n3)NCCC4)cc2)C1(Cl)Cl (single isomer, unassigned) [Example 85, first peak, (2,2-Dichloro-3-{4-[2-(5,6,7,8-tetrahydro-1,8-naphthyridin-2-yl)ethoxy]phenyl}cyclopropyl)acetic acid hydrochloride]
2 | desired compound | – | Cl.O=C(O)CC1C(c2ccc(OCCc3ccc4c(n3)NCCC4)cc2)C1(Cl)Cl (single isomer, unassigned) [Example 85, second peak, (2,2-Dichloro-3-{4-[2-(5,6,7,8-tetrahydro-1,8-naphthyridin-2-yl)ethoxy]phenyl}cyclopropyl)acetic acid hydrochloride]
3 | – | desired compound | CN1CCNc2nc(CCOc3ccc(C4CC4CC(=O)O)cc3)ccc21 (single isomer, unassigned; (+)) [Example 81, ((+)-2-{4-[2-(1-methyl-1,2,3,4-tetrahydropyrido[2,3-b]pyrazin-^6-yl)ethoxy]phenyl}cyclopropyl)acetic acid]
4 | – | undesired compound | CN1CCNc2nc(CCOc3ccc(C4CC4CC(=O)O)cc3)ccc21 (single isomer, unassigned; (-)) [Example 82, ((−)-2-{4-[2-(1-methyl-1,2,3,4-tetrahydropyrido[2,3-b]pyrazin-6-yl)ethoxy]phenyl}cyclopropyl)acetic acid]
